Source: patent US8952024B2, “Herbicidal pyrimidone derivatives” (E I du Pont de Nemours and Company, priority 2009, dated 2015)
Where two headings read alike, the source gives them in different places.

Legend:
Experiment in all cases: Test B pre-/postemergence plant response
Type in all cases: in vivo
[1] = system: lambsquarters (Chenopodium album); conditions: for pest or weed control at 62 g/ha: 62 g ai/ha
How it was run: (§1)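 Each species received compound formulated in non-phytotoxic solvent with surfactant, either at planting into a loam and sand blend or as a foliar spray once plants reached 2 to 18 cm in peat-based medium. Plants stayed in the greenhouse 13 to 15 days before visual evaluation against controls, scored 0 (no effect) to 100 (complete control).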

[2] = system: Italian ryegrass (Lolium multiflorum)
How it was run: as §1

corn (Zea mays) = conditions: for Corn plant response rating (crop injury, 0 = no effect, 100 = complete kill) at 31 g/ha: 31 g ai/ha, scale 0 to 100 (0 no effect, 100 complete control)
How it was run: as §1

[3] = system: johnsongrass (Sorghum halepense)
How it was run: as §1

[4] = system: large crabgrass (Digitaria sanguinalis); conditions: for pest or weed control at 31 g/ha: 31 g ai/ha, scale 0 to 100 (0 no effect, 100 complete control); for pest or weed control at 62 g/ha: 62 g ai/ha
How it was run: as §1

[5] = system: blackgrass (Alopecurus myosuroides); conditions: for pest or weed control at 31 g/ha: 31 g ai/ha, scale 0 to 100 (0 no effect, 100 complete control); for pest or weed control at 62 g/ha: 62 g ai/ha
How it was run: as §1

[6] = system: bermudagrass (Cynodon dactylon); conditions: for pest or weed control at 31 g/ha: 31 g ai/ha, scale 0 to 100 (0 no effect, 100 complete control)
How it was run: as §1

[7] = system: ragweed (common ragweed, Ambrosia elatior)
How it was run: as §1

[8] = system: green foxtail (Setaria viridis)
How it was run: as §1

[9] = Postemergence, 250 g ai/ha, scale 0 to 100
[10] = Preemergence, 125 g ai/ha, 0 to 100 scale

Cc1c(F)cccc1-n1c(-c2ccccc2)ncc(C(=O)C2=C(O)CCCC2=O)c1=O [Compound 47, 3-(3-fluoro-2-methylphenyl)-5-[(2-hydroxy-6-oxo-1-cyclohexen-1-yl)carbonyl]-2-phenyl-4(3H)-pyrimidinone] showed a pest or weed control at 62 g/ha ([1]; Chenopodium album, post-emergence, Postemergence, scale 0 (no effect) to 100 (complete control), 13 to 15 days, read-out: Plant response rating, Lambsquarters) of 98%, a pest or weed control at 125 g/ha ([1]; Chenopodium album, post-emergence, Postemergence, 125 g ai/ha, visual rating after 13 to 15 days, scale 0 (no effect) to 100 (complete control)) of 98% and a pest or weed control at 250 g/ha ([1]; Chenopodium album, pre-emergence, 250 g ai/ha, Preemergence, 0 to 100 scale, read-out: Plant response rating, Lambsquarters) of 100%. For the same molecule, the pest or weed control at 31 g/ha ([1]; Chenopodium album, pre-emergence, Preemergence, 31 g ai/ha, scale 0 to 100 (0 no effect, 100 complete control), read-out: Plant response rating, Lambsquarters) was 100%, the pest or weed control at 62 g/ha ([1]; Chenopodium album, pre-emergence, Preemergence, scale 0 to 100, 0 no effect, 100 complete control, read-out: Plant response rating, Lambsquarters) was 100% and the “Lambsquarters plant response rating” value [1, 9] was 100. For the same molecule, the “Lambsquarters plant response rating” value [1, 10] was 100, the pest or weed control at 62 g/ha ([2]; Lolium multiflorum, post-emergence, Postemergence, 62 g ai/ha, scale 0 (no effect) to 100 (complete control), 13 to 15 days, read-out: Plant response rating, Ryegrass, Italian) was 30% and the pest or weed control at 125 g/ha ([2]; Lolium multiflorum, post-emergence, Postemergence, 125 g ai/ha, visual rating after 13 to 15 days, scale 0 (no effect) to 100 (complete control)) was 30%. The pest or weed control at 250 g/ha ([2]; Lolium multiflorum, pre-emergence, 250 g ai/ha, Preemergence, 0 to 100 scale, read-out: Plant response rating, Ryegrass, Italian) was 0%, the pest or weed control at 31 g/ha ([2]; Lolium multiflorum, pre-emergence, Preemergence, 31 g ai/ha, scale 0 to 100 (0 no effect, 100 complete control), read-out: Plant response rating, Ryegrass, Italian) was 0% and the “Ryegrass, Italian plant response rating” value [2, 10] was 0. The “Corn plant response rating” value (corn (Zea mays); [10]) was 0, the Corn plant response rating (crop injury, 0 = no effect, 100 = complete kill) at 31 g/ha (corn (Zea mays); Zea mays, post-emergence, Postemergence) was 65% and the Corn plant response rating (crop injury, 0 = no effect, 100 = complete kill) at 125 g/ha (corn (Zea mays); Zea mays, post-emergence, Postemergence, 125 g ai/ha, visual rating after 13 to 15 days, scale 0 (no effect) to 100 (complete control)) was 80%. The Corn plant response rating (crop injury, 0 = no effect, 100 = complete kill) at 250 g/ha (corn (Zea mays); Zea mays, pre-emergence, 250 g ai/ha, Preemergence, 0 to 100 scale) was 0%, the Corn plant response rating (crop injury, 0 = no effect, 100 = complete kill) at 31 g/ha (corn (Zea mays); Zea mays, pre-emergence, Preemergence) was 0% and the Corn plant response rating (crop injury, 0 = no effect, 100 = complete kill) at 62 g/ha (corn (Zea mays); Zea mays, pre-emergence, Preemergence, 62 g ai/ha, scale 0 to 100, 0 no effect, 100 complete control) was 0%. For the same molecule, the “Johnsongrass plant response rating” value [3, 10] was 80, the pest or weed control at 125 g/ha ([3]; Sorghum halepense, post-emergence, Postemergence, 125 g ai/ha, visual rating after 13 to 15 days, scale 0 (no effect) to 100 (complete control)) was 98% and the pest or weed control at 250 g/ha ([3]; Sorghum halepense, pre-emergence, 250 g ai/ha, Preemergence, 0 to 100 scale, read-out: Plant response rating, Johnsongrass) was 100%. The pest or weed control at 31 g/ha ([3]; Sorghum halepense, pre-emergence, Preemergence, 31 g ai/ha, scale 0 to 100 (0 no effect, 100 complete control), read-out: Plant response rating, Johnsongrass) was 65%, the pest or weed control at 62 g/ha ([3]; Sorghum halepense, pre-emergence, Preemergence, 62 g ai/ha, scale 0 to 100, 0 no effect, 100 complete control, read-out: Plant response rating, Johnsongrass) was 75% and the pest or weed control at 31 g/ha ([4]; Digitaria sanguinalis, post-emergence, Postemergence, read-out: Plant response rating, Crabgrass, Large) was 85%. For the same molecule, the pest or weed control at 62 g/ha ([4]; Digitaria sanguinalis, post-emergence, Postemergence, scale 0 (no effect) to 100 (complete control), 13 to 15 days, read-out: Plant response rating, Crabgrass, Large) was 85%, the pest or weed control at 125 g/ha ([4]; Digitaria sanguinalis, post-emergence, Postemergence, 125 g ai/ha, visual rating after 13 to 15 days, scale 0 (no effect) to 100 (complete control)) was 90% and the pest or weed control at 250 g/ha ([4]; Digitaria sanguinalis, pre-emergence, 250 g ai/ha, Preemergence, 0 to 100 scale, read-out: Plant response rating, Crabgrass, Large) was 100%. For the same molecule, the pest or weed control at 31 g/ha ([4]; Digitaria sanguinalis, pre-emergence, Preemergence, read-out: Plant response rating, Crabgrass, Large) was 75%, the pest or weed control at 62 g/ha ([4]; Digitaria sanguinalis, pre-emergence, Preemergence, scale 0 to 100, 0 no effect, 100 complete control, read-out: Plant response rating, Crabgrass, Large) was 95% and the “Crabgrass, Large plant response rating” value [4, 9] was 100. For the same molecule, the “Crabgrass, Large plant response rating” value [4, 10] was 100, the pest or weed control at 31 g/ha ([5]; Alopecurus myosuroides, post-emergence, 360 h, Postemergence, read-out: Plant response rating, Blackgrass) was 5% and the pest or weed control at 62 g/ha ([5]; Alopecurus myosuroides, post-emergence, 360 h, Postemergence, scale 0 (no effect) to 100 (complete control), 13 to 15 days, read-out: Plant response rating, Blackgrass) was 20%. The pest or weed control at 125 g/ha ([5]; Alopecurus myosuroides, post-emergence, 360 h, Postemergence, 125 g ai/ha, visual rating after 13 to 15 days, scale 0 (no effect) to 100 (complete control)) was 25%, the pest or weed control at 250 g/ha ([5]; Alopecurus myosuroides, pre-emergence, 360 h, 250 g ai/ha, Preemergence, 0 to 100 scale, read-out: Plant response rating, Blackgrass) was 5% and the pest or weed control at 31 g/ha ([5]; Alopecurus myosuroides, pre-emergence, 360 h, Preemergence, read-out: Plant response rating, Blackgrass) was 0%. For the same molecule, the pest or weed control at 62 g/ha ([5]; Alopecurus myosuroides, pre-emergence, 360 h, Preemergence, scale 0 to 100, 0 no effect, 100 complete control, read-out: Plant response rating, Blackgrass) was 5%, the “Blackgrass plant response rating” value [5, 9] was 30 and the “Blackgrass plant response rating” value [5, 10] was 5. For the same molecule, the pest or weed control at 31 g/ha ([6]; Cynodon dactylon, post-emergence, Postemergence, read-out: Plant response rating, Bermudagrass) was 85%, the pest or weed control at 125 g/ha ([6]; Cynodon dactylon, post-emergence, Postemergence, 125 g ai/ha, visual rating after 13 to 15 days, scale 0 (no effect) to 100 (complete control)) was 98% and the pest or weed control at 250 g/ha ([6]; Cynodon dactylon, pre-emergence, 250 g ai/ha, Preemergence, 0 to 100 scale, read-out: Plant response rating, Bermudagrass) was 100%. For the same molecule, the pest or weed control at 31 g/ha ([6]; Cynodon dactylon, pre-emergence, Preemergence, read-out: Plant response rating, Bermudagrass) was 100%, the pest or weed control at 62 g/ha ([6]; Cynodon dactylon, pre-emergence, Preemergence, 62 g ai/ha, scale 0 to 100, 0 no effect, 100 complete control, read-out: Plant response rating, Bermudagrass) was 100% and the “Bermudagrass plant response rating” value [6, 10] was 100. For the same molecule, the pest or weed control at 62 g/ha ([7]; Ambrosia artemisiifolia, post-emergence, 360 h, Postemergence, 62 g ai/ha, scale 0 (no effect) to 100 (complete control), 13 to 15 days, read-out: Plant response rating, Ragweed) was 90%, the pest or weed control at 125 g/ha ([7]; Ambrosia artemisiifolia, post-emergence, 360 h, Postemergence, 125 g ai/ha, visual rating after 13 to 15 days, scale 0 (no effect) to 100 (complete control)) was 95% and the pest or weed control at 250 g/ha ([7]; Ambrosia artemisiifolia, pre-emergence, 360 h, 250 g ai/ha, Preemergence, 0 to 100 scale, read-out: Plant response rating, Ragweed) was 95%. For the same molecule, the pest or weed control at 31 g/ha ([7]; Ambrosia artemisiifolia, pre-emergence, 360 h, Preemergence, 31 g ai/ha, scale 0 to 100 (0 no effect, 100 complete control), read-out: Plant response rating, Ragweed) was 45%, the “Ragweed plant response rating” value [7, 10] was 90 and the “Foxtail, Green plant response rating” value [8, 9] was 95. The “Foxtail, Green plant response rating” value [8, 10] was 98 and the pest or weed control at 31 g/ha ([8]; Setaria viridis, post-emergence, Postemergence, 31 g ai/ha, scale 0 to 100 (0 no effect, 100 complete control), read-out: Plant response rating, Foxtail, Green) was 80%.
